According to paper PMC5218480 (PLoS ONE, 2017):

Test system: MV-4-11 cells
Assay: Gene expression microarray analysis (Affymetrix PrimeView) and GSEA
Format: cell-based, human
Design: RFU PODN (11730768_x_at) / Fold change /veh PODN (11730768_x_at) / RFU LINC00158 (11744669_a_at) / Fold change /veh LINC00158 (11744669_a_at) / RFU DUSP10 (11751237_a_at) / Fold change /veh DUSP10 (11751237_a_at) / RFU ID3 (11757404_x_at) / Fold change /veh ID3 (11757404_x_at) / RFU PLEKHG5 (11737974_s_at) / Fold change /veh PLEKHG5 (11737974_s_at) / RFU LRRC4B (11730491_at) / Fold change /veh LRRC4B (11730491_at) / RFU GIMAP4 (11747438_a_at) / Fold change /veh GIMAP4 (11747438_a_at) / RFU KRT8 (11758183_x_at) / Fold change /veh KRT8 (11758183_x_at) / RFU CNN1 (11734310_a_at) / Fold change /veh CNN1 (11734310_a_at) / RFU VPS37D (11726825_at) / Fold change /veh VPS37D (11726825_at) / RFU C10orf10 (11716522_x_at) / Fold change /veh C10orf10 (11716522_x_at) / RFU KIR2DL2 /// KIR2DL4 /// KIR2DL5A /// KIR2DL5B /// KIR2DS1 /// KIR2DS2 /// KIR2DS3 /// KIR2DS4 /// KIR3DL3 /// KIR3DL3 /// KIR3DS1 (11738374_at) / Fold change /veh KIR2DL2 /// KIR2DL4 /// KIR2DL5A /// KIR2DL5B /// KIR2DS1 /// KIR2DS2 /// KIR2DS3 /// KIR2DS4 /// KIR3DL3 /// KIR3DL3 /// KIR3DS1 (11738374_at) / RFU C1QL1 (11718748_at) / Fold change /veh C1QL1 (11718748_at) / RFU TMPRSS4 (11747572_a_at) / Fold change /veh TMPRSS4 (11747572_a_at) / RFU HAMP (11756126_x_at) / Fold change /veh HAMP (11756126_x_at) / RFU RNFT2 (11725882_a_at) / Fold change /veh RNFT2 (11725882_a_at) / RFU NR4A2 (11747474_a_at) / Fold change /veh NR4A2 (11747474_a_at) / RFU ABCC12 (11746883_a_at) / Fold change /veh ABCC12 (11746883_a_at) / RFU TMEM136 (11760407_x_at) / Fold change /veh TMEM136 (11760407_x_at) / RFU CLDN22 /// WWC2 (11732394_at) / Fold change /veh CLDN22 /// WWC2 (11732394_at) / RFU HLA-DPB1 (11760878_x_at) / Fold change /veh HLA-DPB1 (11760878_x_at) / RFU SPINT1 (11716480_a_at) / Fold change /veh SPINT1 (11716480_a_at) / RFU GAP43 (11754022_s_at) / Fold change /veh GAP43 (11754022_s_at) / RFU A4GNT (11735810_at) / Fold change /veh A4GNT (11735810_at) / RFU PRB3 (11715151_x_at) / Fold change /veh PRB3 (11715151_x_at) / RFU TUBB4B (11761932_at) / Fold change /veh TUBB4B (11761932_at) / RFU CAPN14 (11732068_a_at) / Fold change /veh CAPN14 (11732068_a_at) / RFU TMCC2 (11721928_a_at) / Fold change /veh TMCC2 (11721928_a_at) / RFU IRGQ (11745062_a_at) / Fold change /veh IRGQ (11745062_a_at) / RFU FAM174B (11720279_a_at) / Fold change /veh FAM174B (11720279_a_at) / RFU TMPRSS4 (11748680_a_at) / Fold change /veh TMPRSS4 (11748680_a_at) / RFU FAM212B (11763350_a_at) / Fold change /veh FAM212B (11763350_a_at) / RFU PLEKHG5 (11743358_a_at) / Fold change /veh PLEKHG5 (11743358_a_at) / RFU ZSCAN30 (11745921_a_at) / Fold change /veh ZSCAN30 (11745921_a_at) / RFU CMKLR1 (11741424_a_at) / Fold change /veh CMKLR1 (11741424_a_at) / RFU LOC101060620 /// MAPK8IP1 (11723275_at) / Fold change /veh LOC101060620 /// MAPK8IP1 (11723275_at) / RFU SPTSSB (11747773_x_at) / Fold change /veh SPTSSB (11747773_x_at) / RFU PRSS12 (11739890_at) / Fold change /veh PRSS12 (11739890_at) / RFU BIN1 (11741810_x_at) / Fold change /veh BIN1 (11741810_x_at) / RFU WNT11 (11732464_a_at) / Fold change /veh WNT11 (11732464_a_at) / RFU C10orf10 (11716521_a_at) / Fold change /veh C10orf10 (11716521_a_at) / RFU C5orf56 (11738089_at) / Fold change /veh C5orf56 (11738089_at) / RFU CYB561 (11721691_x_at) / Fold change /veh CYB561 (11721691_x_at) / RFU ANKRD19P (11752326_a_at) / Fold change /veh ANKRD19P (11752326_a_at) / RFU OR2T12 /// OR2T33 /// OR2T8 (11738714_s_at) / Fold change /veh OR2T12 /// OR2T33 /// OR2T8 (11738714_s_at) / RFU VCAN (11748164_a_at) / Fold change /veh VCAN (11748164_a_at) / RFU JSRP1 (11732532_at) / Fold change /veh JSRP1 (11732532_at) / RFU KRTAP10-11 (11738290_x_at) / Fold change /veh KRTAP10-11 (11738290_x_at) / RFU MYO3A (11730013_a_at) / Fold change /veh MYO3A (11730013_a_at) / RFU EBF3 (11725865_a_at) / Fold change /veh EBF3 (11725865_a_at) / RFU CAMK2N1 (11719241_x_at) / Fold change /veh CAMK2N1 (11719241_x_at) / RFU C5orf56 (11738088_a_at) / Fold change /veh C5orf56 (11738088_a_at) / RFU OLFML3 (11715873_a_at) / Fold change /veh OLFML3 (11715873_a_at) / RFU LOC100653217 /// NTM (11731650_a_at) / Fold change /veh LOC100653217 /// NTM (11731650_a_at) / RFU MAPK11 (11762145_a_at) / Fold change /veh MAPK11 (11762145_a_at) / RFU FIZ1 (11724087_x_at) / Fold change /veh FIZ1 (11724087_x_at) / RFU OASL (11726364_x_at) / Fold change /veh OASL (11726364_x_at) / RFU SOX15 (11748057_x_at) / Fold change /veh SOX15 (11748057_x_at) / RFU CD79A (11719716_a_at) / Fold change /veh CD79A (11719716_a_at) / RFU HIST1H1D (11736915_at) / Fold change /veh HIST1H1D (11736915_at) / RFU CASKIN2 (11723855_a_at) / Fold change /veh CASKIN2 (11723855_a_at) / RFU LOC730098 (11760151_x_at) / Fold change /veh LOC730098 (11760151_x_at) / RFU OR4N2 (11742367_at) / Fold change /veh OR4N2 (11742367_at) / RFU PRRT2 (11749266_a_at) / Fold change /veh PRRT2 (11749266_a_at) / RFU SNX32 (11753110_a_at) / Fold change /veh SNX32 (11753110_a_at) / RFU CDHR5 (11726645_a_at) / Fold change /veh CDHR5 (11726645_a_at) / RFU RCAN1 (11760418_a_at) / Fold change /veh RCAN1 (11760418_a_at) / RFU FAM167A (11723789_a_at) / Fold change /veh FAM167A (11723789_a_at) / RFU FAM26E (11764081_at) / Fold change /veh FAM26E (11764081_at) / RFU ISYNA1 (11749810_s_at) / Fold change /veh ISYNA1 (11749810_s_at) / RFU ACY1 (11761880_at) / Fold change /veh ACY1 (11761880_at) / RFU 11764098_at / Fold change /veh 11764098_at / RFU SAMD14 (11745864_x_at) / Fold change /veh SAMD14 (11745864_x_at) / RFU NPB (11741838_a_at) / Fold change /veh NPB (11741838_a_at) / RFU TMPRSS6 (11731388_a_at) / Fold change /veh TMPRSS6 (11731388_a_at) / RFU KRTAP10-2 (11738614_at) / Fold change /veh KRTAP10-2 (11738614_at) / RFU ARHGAP8 /// PRR5-ARHGAP8 (11727945_x_at) / Fold change /veh ARHGAP8 /// PRR5-ARHGAP8 (11727945_x_at) / RFU KRTAP5-7 /// NADSYN1 (11734609_at) / Fold change /veh KRTAP5-7 /// NADSYN1 (11734609_at) / RFU RASL12 (11751679_a_at) / Fold change /veh RASL12 (11751679_a_at) / RFU CDKN2B (11736163_a_at) / Fold change /veh CDKN2B (11736163_a_at) / RFU PRF1 (11729649_at) / Fold change /veh PRF1 (11729649_at) / RFU, ZNF638 /// ZNF638-IT1 / Fold change vs veh, ZNF638 /// ZNF638-IT1 / RFU, PANK3 / Fold change vs veh, PANK3 / RFU, SH3YL1 / Fold change vs veh, SH3YL1 / RFU, ZEB2 / Fold change vs veh, ZEB2 / RFU, NRIP1 / Fold change vs veh, NRIP1 / RFU, PTTG1IP / Fold change vs veh, PTTG1IP / RFU, CAPN2 / Fold change vs veh, CAPN2 / RFU, MED14 / Fold change vs veh, MED14 / RFU, SNORA58 / Fold change vs veh, SNORA58 / RFU, C1orf63 / Fold change vs veh, C1orf63 / RFU, LRRFIP1 / Fold change vs veh, LRRFIP1 / RFU, NDUFAF7 / Fold change vs veh, NDUFAF7 / RFU, SLC12A2 / Fold change vs veh, SLC12A2 / RFU, IBTK / Fold change vs veh, IBTK / RFU, ESF1 / Fold change vs veh, ESF1 / Fold change vs veh, TMEM50B / RFU, TAOK1 / Fold change vs veh, TAOK1 / RFU, ACBD3 / Fold change vs veh, ACBD3 / RFU, TMA16 / Fold change vs veh, TMA16 / RFU, RWDD3 / Fold change vs veh, RWDD3 / RFU, BCAT1 / Fold change vs veh, BCAT1 / RFU, EDEM3 / Fold change vs veh, EDEM3 / RFU, TMEM33 / Fold change vs veh, TMEM33 / RFU, WDR75 / Fold change vs veh, WDR75 / RFU, AHCTF1 / Fold change vs veh, AHCTF1 / RFU, TFRC / Fold change vs veh, TFRC / RFU, ZDHHC17 / Fold change vs veh, ZDHHC17 / RFU, NOM1 / Fold change vs veh, NOM1 / RFU, ARL8B / Fold change vs veh, ARL8B / RFU, ZBTB11 / Fold change vs veh, ZBTB11 / RFU, TAMM41 / Fold change vs veh, TAMM41 / RFU, KIAA1704 /// LOC100996395 / Fold change vs veh, KIAA1704 /// LOC100996395 / RFU, ING1 / Fold change vs veh, ING1 / RFU, TRMT61B / Fold change vs veh, TRMT61B / RFU, FUBP3 / Fold change vs veh, FUBP3 / RFU, TP53 / Fold change vs veh, TP53 / RFU, TNKS2 / Fold change vs veh, TNKS2 / RFU, ZFP14 / Fold change vs veh, ZFP14 / RFU, ACTR2 / Fold change vs veh, ACTR2 / RFU, PPP3R1 / Fold change vs veh, PPP3R1 / RFU, PIK3R1 / Fold change vs veh, PIK3R1 / RFU, HNRNPA1 / Fold change vs veh, HNRNPA1 / RFU, RNF170 / Fold change vs veh, RNF170 / RFU, ZNF28 / Fold change vs veh, ZNF28 / RFU, RNGTT / Fold change vs veh, RNGTT / RFU, OGT / Fold change vs veh, OGT / RFU, BRD1 / Fold change vs veh, BRD1 / RFU, MARS / Fold change vs veh, MARS / RFU, ZNF655 / Fold change vs veh, ZNF655 / RFU, FAHD1 / Fold change vs veh, FAHD1 / RFU, BDP1 / Fold change vs veh, BDP1 / RFU, LRRCC1 / Fold change vs veh, LRRCC1 / RFU, ARID1A / Fold change vs veh, ARID1A / RFU, ZNF146 / Fold change vs veh, ZNF146 / RFU, ZNF330 / Fold change vs veh, ZNF330 / RFU, GPN3 / Fold change vs veh, GPN3 / RFU, C9orf123 / Fold change vs veh, C9orf123 / RFU, N4BP2L2 / Fold change vs veh, N4BP2L2 / RFU, ARFIP1 / Fold change vs veh, ARFIP1 / RFU, FAM179B / Fold change vs veh, FAM179B / RFU, BCL10 / Fold change vs veh, BCL10 / RFU, UHRF1BP1L / Fold change vs veh, UHRF1BP1L / RFU, BET1 / Fold change vs veh, BET1 / RFU, CNOT2 / Fold change vs veh, CNOT2 / RFU, ZNF268 / Fold change vs veh, ZNF268 / Fold change vs veh, ZNF507 / RFU, DGCR2 / Fold change vs veh, DGCR2 / RFU, WDSUB1 / Fold change vs veh, WDSUB1 / Fold change vs veh, HSP90B1 /// MIR3652 / RFU, ADSS / Fold change vs veh, ADSS / RFU, GK / Fold change vs veh, GK / RFU, ZNF148 / Fold change vs veh, ZNF148 / RFU, TAF9 / Fold change vs veh, TAF9 / RFU, SLC1A5 / Fold change vs veh, SLC1A5 / RFU, SLMO2 / Fold change vs veh, SLMO2 / RFU, ABCC4 / Fold change vs veh, ABCC4 / RFU, LOC101060439 /// RAP1B / Fold change vs veh, LOC101060439 /// RAP1B / RFU, RFX7 / Fold change vs veh, RFX7 / RFU, GTPBP10 / Fold change vs veh, GTPBP10 / RFU, CNEP1R1 / Fold change vs veh, CNEP1R1 / RFU, BIVM-ERCC5 /// ERCC5 / Fold change vs veh, BIVM-ERCC5 /// ERCC5 / RFU, ILF3 / Fold change vs veh, ILF3 / RFU 11762660_at / Fold change /veh 11762660_at / RFU VCAN (11757783_s_at) / Fold change /veh VCAN (11757783_s_at) / RFU DDX43 (11728927_at) / Fold change /veh DDX43 (11728927_at) / RFU KRT8 (11758188_x_at) / Fold change /veh KRT8 (11758188_x_at) / RFU NKD1 (11759106_at) / Fold change /veh NKD1 (11759106_at) / RFU SRD5A1 (11742802_a_at) / Fold change /veh SRD5A1 (11742802_a_at) / RFU TPSAB1 /// TPSB2 (11721975_s_at) / Fold change /veh TPSAB1 /// TPSB2 (11721975_s_at) / RFU GSTM3 (11746129_a_at) / Fold change /veh GSTM3 (11746129_a_at) / RFU IL23R (11737362_x_at) / Fold change /veh IL23R (11737362_x_at) / RFU TMEM51 (11727254_a_at) / Fold change /veh TMEM51 (11727254_a_at) / RFU PIWIL2 (11732686_x_at) / Fold change /veh PIWIL2 (11732686_x_at) / RFU ORM1 (11744905_x_at) / Fold change /veh ORM1 (11744905_x_at) / RFU CCDC152 (11743942_at) / Fold change /veh CCDC152 (11743942_at) / RFU ECM1 (11717891_a_at) / Fold change /veh ECM1 (11717891_a_at) / RFU IL23R (11748794_a_at) / Fold change /veh IL23R (11748794_a_at) / RFU TNFAIP8L3 (11732012_x_at) / Fold change /veh TNFAIP8L3 (11732012_x_at) / RFU MBOAT4 (11741988_at) / Fold change /veh MBOAT4 (11741988_at) / RFU 11764193_at / Fold change /veh 11764193_at / RFU TMEM53 (11763286_at) / Fold change /veh TMEM53 (11763286_at) / RFU MAGEB2 (11727129_at) / Fold change /veh MAGEB2 (11727129_at) / RFU TMEM200A (11744735_a_at) / Fold change /veh TMEM200A (11744735_a_at) / RFU CCDC152 (11751479_a_at) / Fold change /veh CCDC152 (11751479_a_at) / RFU FAM211A (11726209_a_at) / Fold change /veh FAM211A (11726209_a_at) / RFU RGS16 (11746705_a_at) / Fold change /veh RGS16 (11746705_a_at) / RFU VCAN (11755009_s_at) / Fold change /veh VCAN (11755009_s_at) / RFU RHOB (11743442_s_at) / Fold change /veh RHOB (11743442_s_at) / RFU RGS16 (11720943_a_at) / Fold change /veh RGS16 (11720943_a_at) / RFU RGS16 (11720944_at) / Fold change /veh RGS16 (11720944_at) / RFU, VPS4B / Fold change vs veh, VPS4B / RFU, CREB1 / Fold change vs veh, CREB1 / RFU, DNAJC13 / Fold change vs veh, DNAJC13 / RFU, GNAQ / Fold change vs veh, GNAQ / RFU, CDK5R1 / Fold change vs veh, CDK5R1 / RFU, ZRANB3 / Fold change vs veh, ZRANB3 / RFU, CUL4A / Fold change vs veh, CUL4A / RFU, CCNY / Fold change vs veh, CCNY / RFU, UFL1 / Fold change vs veh, UFL1 / RFU, COG3 / Fold change vs veh, COG3 / RFU, DIAPH2 / Fold change vs veh, DIAPH2 / RFU, SKA2 / Fold change vs veh, SKA2 / RFU, AFF3 / Fold change vs veh, AFF3 / RFU, LMF1 / Fold change vs veh, LMF1 / RFU, IPO11 / Fold change vs veh, IPO11 / RFU, DFFB / Fold change vs veh, DFFB / RFU, FOXP1 / Fold change vs veh, FOXP1 / RFU, CARD8 / Fold change vs veh, CARD8 / RFU, STRN3 / Fold change vs veh, STRN3 / RFU, ADK / Fold change vs veh, ADK / RFU, RASSF2 / Fold change vs veh, RASSF2 / RFU, WIPF1 / Fold change vs veh, WIPF1 / RFU, LARP1B / Fold change vs veh, LARP1B / RFU, RASA1 / Fold change vs veh, RASA1 / RFU, RB1 / Fold change vs veh, RB1 / RFU, PPFIA1 / Fold change vs veh, PPFIA1 / RFU, MAT2A / Fold change vs veh, MAT2A / RFU, CCT5 / Fold change vs veh, CCT5 / RFU, WDR92 / Fold change vs veh, WDR92 / RFU, CUX1 / Fold change vs veh, CUX1 / RFU, TTC7A / Fold change vs veh, TTC7A / RFU, TMEM135 / Fold change vs veh, TMEM135 / RFU, DEPTOR / Fold change vs veh, DEPTOR / RFU, CPM / Fold change vs veh, CPM / RFU, DNAJB6 / Fold change vs veh, DNAJB6 / RFU, CACNA2D3 / Fold change vs veh, CACNA2D3 / RFU, DTX4 / Fold change vs veh, DTX4 / RFU, TFCP2 / Fold change vs veh, TFCP2 / RFU, GMCL1 /// GMCL1P1 / Fold change vs veh, GMCL1 /// GMCL1P1 / RFU, AEBP2 / Fold change vs veh, AEBP2 / RFU, SNHG1 /// SNORD22 /// SNORD25 /// SNORD26 /// SNORD27 /// SNORD28 /// SNORD29 /// SNORD31 / Fold change vs veh, SNHG1 /// SNORD22 /// SNORD25 /// SNORD26 /// SNORD27 /// SNORD28 /// SNORD29 /// SNORD31 / Fold change (Aza/veh), C12orf56 (ProbeSet 11735607_a_at) / Fold change (ACY-1035/veh), C12orf56 (ProbeSet 11735607_a_at) / Fold change (Aza/veh), FGFR1OP (ProbeSet 11751329_s_at) / Fold change (ACY-1035/veh), FGFR1OP (ProbeSet 11751329_s_at) / Fold change (Aza/veh), VPS36 (ProbeSet 11739960_a_at) / Fold change (ACY-1035/veh), VPS36 (ProbeSet 11739960_a_at) / RFU SYPL1 (11715823_x_at) / Fold change /veh SYPL1 (11715823_x_at) / RFU IGFBP7 (11715501_s_at) / Fold change /veh IGFBP7 (11715501_s_at) / RFU REEP3 (11722064_at) / Fold change /veh REEP3 (11722064_at) / RFU IGLL1 (11728026_x_at) / Fold change /veh IGLL1 (11728026_x_at): dose or concentration left out as unconfirmed
Conditions: MV-4-11 cells, 48 hours

Nc1ncn([C@@H]2O[C@H](CO)[C@@H](O)[C@H]2O)c(=O)n1 [azacitidine]
Fold change /veh ABCC12 (11746883_a_at): 0.93
